{"source": "patent US20190281871A1", "about": "“CHICORY PRODUCTS CONTAINING CANNABINOIDS” (Full Spectrum Laboratories Ltd, priority 2016, published 2019)", "origin": "cited, not measured here", "key": {"5-HT1A receptor": {"biological_target": "T1, 5-HT1A receptor (Homo sapiens, UniProt P08908)", "T1 sequence (P08908 1-422)": "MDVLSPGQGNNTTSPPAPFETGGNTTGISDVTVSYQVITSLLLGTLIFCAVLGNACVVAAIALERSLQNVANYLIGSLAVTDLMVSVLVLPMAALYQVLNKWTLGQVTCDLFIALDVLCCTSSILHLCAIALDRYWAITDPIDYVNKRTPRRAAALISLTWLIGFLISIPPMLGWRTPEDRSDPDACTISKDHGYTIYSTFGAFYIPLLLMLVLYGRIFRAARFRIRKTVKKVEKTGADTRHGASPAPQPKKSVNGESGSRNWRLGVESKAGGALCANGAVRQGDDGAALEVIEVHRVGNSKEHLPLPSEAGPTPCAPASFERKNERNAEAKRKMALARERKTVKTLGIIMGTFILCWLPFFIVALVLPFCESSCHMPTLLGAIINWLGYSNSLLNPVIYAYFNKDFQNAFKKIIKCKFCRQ"}, "CB1 receptor": {"biological_target": "CB1 receptor (Homo sapiens, UniProt P21554)", "sequence (P21554 whole entry)": "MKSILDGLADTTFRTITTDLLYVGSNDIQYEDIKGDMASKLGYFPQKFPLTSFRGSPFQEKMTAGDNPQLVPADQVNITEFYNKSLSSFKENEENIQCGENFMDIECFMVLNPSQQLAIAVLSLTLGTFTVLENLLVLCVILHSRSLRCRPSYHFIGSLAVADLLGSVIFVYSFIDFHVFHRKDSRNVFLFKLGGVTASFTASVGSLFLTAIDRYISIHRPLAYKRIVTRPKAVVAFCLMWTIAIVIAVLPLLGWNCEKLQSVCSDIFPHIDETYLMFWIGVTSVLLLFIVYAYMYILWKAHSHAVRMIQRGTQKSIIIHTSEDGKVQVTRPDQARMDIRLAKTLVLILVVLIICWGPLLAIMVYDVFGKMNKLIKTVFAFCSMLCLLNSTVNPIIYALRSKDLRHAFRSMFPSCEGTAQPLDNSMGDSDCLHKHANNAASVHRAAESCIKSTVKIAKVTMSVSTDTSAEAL"}}}
{"smiles": "CCCCCc1cc(O)c(C/C=C(\\C)CCC=C(C)C)c(O)c1", "note": "[CBG, cannabigerol]", "values": [{"measurement": "α2-adrenergic receptor agonist affinity", "setting": "α2-adrenergic receptor", "value": "high affinity"}, {"measurement": "5-HT1A receptor antagonist affinity", "setting": "5-HT1A receptor", "value": "moderate affinity"}, {"measurement": "CB1 receptor antagonist affinity", "setting": "CB1 receptor", "value": "low affinity"}]}
